Measurements taken from the NIST ThermoML archive (doi:10.1016/j.jct.2016.04.014).

Assay: xn = mol fraction of the nth substance listed
Conditions: Liquid, Vibrating tube method

CCCCCCC [heptane] + CCO
mass density [kg/m3]
Conditions | 100 kPa | 500 kPa | 5000 kPa | 10000 kPa | 15000 kPa | 20000 kPa | 25000 kPa | 30000 kPa | 35000 kPa | 40000 kPa
293.15 K, x1 = 0.2505 | 737.7 | 738.1 | 742.1 | 746.4 | 750.4 | 754.3 | 757.9 | 761.4 | 764.7 | 768
293.15 K, x1 = 0.5004 | 711 | 711.3 | 715.4 | 719.8 | 723.8 | 727.7 | 731.3 | 734.8 | 738.1 | 741.4
293.15 K, x1 = 0.7501 | 694.3 | 694.6 | 698.7 | 703 | 707.1 | 710.9 | 714.6 | 718 | 721.4 | 724.6
303.15 K, x1 = 0.2505 | 728.9 | 729.3 | 733.6 | 738.2 | 742.4 | 746.5 | 750.3 | 754 | 757.5 | 760.8
303.15 K, x1 = 0.5004 | 702.1 | 702.5 | 706.9 | 711.5 | 715.8 | 719.9 | 723.8 | 727.4 | 730.9 | 734.3
303.15 K, x1 = 0.7501 | 685.4 | 685.8 | 690.3 | 694.9 | 699.2 | 703.3 | 707.1 | 710.8 | 714.3 | 717.6
313.15 K, x1 = 0.2505 | 719.9 | 720.3 | 725 | 729.8 | 734.3 | 738.6 | 742.6 | 746.5 | 750.1 | 753.7
313.15 K, x1 = 0.5004 | 693 | 693.4 | 698.2 | 703.1 | 707.7 | 712 | 716.1 | 720 | 723.7 | 727.2
313.15 K, x1 = 0.7501 | 676.4 | 676.9 | 681.6 | 686.6 | 691.2 | 695.5 | 699.6 | 703.4 | 707.1 | 710.6
323.15 K, x1 = 0.2505 | 710.6 | 711.1 | 716.1 | 721.2 | 726.1 | 730.6 | 734.8 | 738.9 | 742.7 | 746.4
323.15 K, x1 = 0.5004 | 683.6 | 684.1 | 689.2 | 694.5 | 699.4 | 704 | 708.4 | 712.4 | 716.3 | 720.1
323.15 K, x1 = 0.7501 | 667.2 | 667.6 | 672.8 | 678.1 | 683 | 687.7 | 692 | 696 | 699.9 | 703.6
333.15 K, x1 = 0.2505 | 701.1 | 701.6 | 706.9 | 712.5 | 717.6 | 722.4 | 726.9 | 731.2 | 735.2 | 739.1
333.15 K, x1 = 0.5004 | 674 | 674.5 | 680 | 685.7 | 691 | 695.9 | 700.5 | 704.8 | 708.9 | 712.8
333.15 K, x1 = 0.7501 | 657.7 | 658.2 | 663.8 | 669.6 | 674.9 | 679.8 | 684.3 | 688.6 | 692.7 | 696.6
353.15 K, x1 = 0.2505 | – | 681.4 | 687.7 | 694.1 | 700 | 705.5 | 710.5 | 715.3 | 719.7 | 724
353.15 K, x1 = 0.5004 | – | 654.2 | 660.8 | 667.5 | 673.6 | 679.1 | 684.3 | 689.1 | 693.7 | 698.1
353.15 K, x1 = 0.7501 | – | 638.4 | 645.1 | 651.8 | 657.9 | 663.5 | 668.6 | 673.4 | 678 | 682.3
373.15 K, x1 = 0.2505 | – | 659.3 | 666.9 | 674.5 | 681.4 | 687.6 | 693.3 | 698.6 | 703.6 | 708.4
373.15 K, x1 = 0.5004 | – | 632.2 | 640.2 | 648.1 | 655.3 | 661.7 | 667.5 | 672.9 | 678 | 682.9
373.15 K, x1 = 0.7501 | – | 617.2 | 625.3 | 633.3 | 640.4 | 646.8 | 652.6 | 658 | 663 | 667.9
